Calls of active or inactive are those of the source.
Key:
[1] = Luminescence Cell-Based Dose Response HTS to Identify Inhibitors of 5'UTR Stem-Loop Driven Prion Protein mRNA Translation in H4 Neuroglioblastoma Cells. [Related pubchem assays: 1827 (Project Summary), 1813 (Primary HTS)]; type: functional
HEK293 = experiment: cells; type: functional, cell-based; settings: Homo sapiens;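 further: NOD2 overexpressing HEK293T cells carrying an NF-kB luciferase reporter; compound exposure roughly 14 hours overnight then 1 hour with resazurin; potency is for loss of cell viability meaning cytotoxicity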
[2] = biological target: Glycogen synthase kinase-3 alpha (Homo sapiens, UniProt P49840); type: functional;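 further: GSK3A result taken from a broad kinome-wide kinase panel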
[3] = biological target: Calcium/calmodulin-dependent protein kinase type II subunit beta (Homo sapiens, UniProt Q13554); type: functional
[4] = biological target: Protein kinase C theta type (Homo sapiens, UniProt Q04759); experiment: Navigating the Kinome. Panel member name: PRKCQ; type: functional
[5] = biological target: Leukocyte tyrosine kinase receptor (Homo sapiens, UniProt P29376); experiment: Navigating the Kinome. Panel member name: LTK; type: functional
[6] = biological target: Calcium/calmodulin-dependent protein kinase type II subunit alpha (Homo sapiens, UniProt Q9UQM7); experiment: Navigating the Kinome. Panel member name: CAMK2A; type: functional
[7] = biological target: Dual specificity tyrosine-phosphorylation-regulated kinase 4 (Homo sapiens, UniProt Q9NR20); type: functional
SRSF protein kinase 1 = SRSF protein kinase 1 (Homo sapiens, UniProt Q96SB4); type: functional;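 further: measured as one member of a kinome-wide kinase profiling panel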
[8] = biological target: Receptor tyrosine-protein kinase erbB-2 (Homo sapiens, UniProt P04626); experiment: Navigating the Kinome. Panel member name: ERBB2; type: functional
[9] = biological target: Serine/threonine-protein kinase PAK 1 (Homo sapiens, UniProt Q13153); type: functional
[10] = biological target: Non-receptor tyrosine-protein kinase TYK2 (Homo sapiens, UniProt P29597); type: functional
[11] = biological target: Vascular endothelial growth factor receptor 1 (Homo sapiens, UniProt P17948); type: functional;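 further: measured within a kinome-wide profiling panel, FLT1 as the panel member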
Aurora kinase A = Aurora kinase A (Homo sapiens, UniProt O14965); type: functional;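 further: value from the Navigating the Kinome kinase panel profiling, panel entry STK6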
[12] = biological target: Dual specificity tyrosine-phosphorylation-regulated kinase 3 (Homo sapiens, UniProt O43781); type: functional;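 further: measured as one member of a broad kinase panel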
[13] = biological target: Tyrosine-protein kinase SYK (Homo sapiens, UniProt P43405); type: functional
[14] = biological target: MAP kinase-activated protein kinase 3 (Homo sapiens, UniProt Q16644); type: functional;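 further: value comes from a kinome-wide profiling panel in which MAPKAPK3 is one of the panel members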
[15] = biological target: Insulin-like growth factor 1 receptor (Homo sapiens, UniProt P08069); experiment: Navigating the Kinome. Panel member name: IGF1R; type: functional
[16] = biological target: Dual specificity mitogen-activated protein kinase kinase 2 (Homo sapiens, UniProt P36507); experiment: Navigating the Kinome. Panel member name: MAP2K2; type: functional
[17] = biological target: Casein kinase I isoform delta (Homo sapiens, UniProt P48730); type: functional;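 further: measured as one member (CSNK1D) of a kinome panel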
[18] = biological target: Rho-associated protein kinase 1 (Homo sapiens, UniProt Q13464); type: functional;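 further: measured within a broad kinome-wide panel profiling many kinases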
[19] = biological target: Serine/threonine-protein kinase Nek2 (Homo sapiens, UniProt P51955); type: functional
[20] = biological target: Tyrosine-protein kinase Srms (Homo sapiens, UniProt Q9H3Y6); type: functional;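 further: SRMS measured as one member of a kinome-wide kinase profiling panel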
Aurora kinase B = Aurora kinase B (Homo sapiens, UniProt Q96GD4); type: functional
[21] = biological target: Tyrosine-protein kinase FRK (Homo sapiens, UniProt P42685); type: functional;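 further: FRK tested as one member of a kinome panel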
[22] = HeLa 4N DNA content increase, dose response, cell-based, IC50 (AID 1117351); type: functional
[23] = SNU-C1 cell viability reduction, dose response, CellTiter-Glo luminescence (AID 1117323); type: functional, cell-based
[24] = Concentration-dependent survival of SW480 colon cancer line, luminescence detection with CellTiter-Glo, half-maximal inhibitory concentration (AID 1117338); type: functional
[25] = cytotoxicity in KRAS-transformed pancreatic duct cells, primary screen, cell-based, fluorescence, HTS (AID 431); type: functional; settings: Homo sapiens;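 further: cell line used: HPDE-C7K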

Dual specificity tyrosine-phosphorylation-regulated kinase 4, sequence (Q9NR20 whole entry): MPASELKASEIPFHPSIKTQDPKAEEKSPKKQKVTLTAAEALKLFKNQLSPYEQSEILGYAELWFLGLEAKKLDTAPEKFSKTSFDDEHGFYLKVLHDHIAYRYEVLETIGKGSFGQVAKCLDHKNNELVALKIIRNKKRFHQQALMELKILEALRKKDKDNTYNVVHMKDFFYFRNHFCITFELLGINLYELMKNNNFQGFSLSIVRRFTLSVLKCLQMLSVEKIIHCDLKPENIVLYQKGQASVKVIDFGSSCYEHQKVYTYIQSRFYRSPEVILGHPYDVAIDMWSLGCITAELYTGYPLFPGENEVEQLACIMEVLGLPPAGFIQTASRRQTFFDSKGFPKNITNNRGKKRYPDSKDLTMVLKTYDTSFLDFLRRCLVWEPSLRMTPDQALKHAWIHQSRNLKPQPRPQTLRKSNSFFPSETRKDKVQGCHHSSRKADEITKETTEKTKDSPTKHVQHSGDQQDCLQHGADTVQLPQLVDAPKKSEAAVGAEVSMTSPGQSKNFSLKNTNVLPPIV
Dual specificity tyrosine-phosphorylation-regulated kinase 3, sequence (O43781 whole entry): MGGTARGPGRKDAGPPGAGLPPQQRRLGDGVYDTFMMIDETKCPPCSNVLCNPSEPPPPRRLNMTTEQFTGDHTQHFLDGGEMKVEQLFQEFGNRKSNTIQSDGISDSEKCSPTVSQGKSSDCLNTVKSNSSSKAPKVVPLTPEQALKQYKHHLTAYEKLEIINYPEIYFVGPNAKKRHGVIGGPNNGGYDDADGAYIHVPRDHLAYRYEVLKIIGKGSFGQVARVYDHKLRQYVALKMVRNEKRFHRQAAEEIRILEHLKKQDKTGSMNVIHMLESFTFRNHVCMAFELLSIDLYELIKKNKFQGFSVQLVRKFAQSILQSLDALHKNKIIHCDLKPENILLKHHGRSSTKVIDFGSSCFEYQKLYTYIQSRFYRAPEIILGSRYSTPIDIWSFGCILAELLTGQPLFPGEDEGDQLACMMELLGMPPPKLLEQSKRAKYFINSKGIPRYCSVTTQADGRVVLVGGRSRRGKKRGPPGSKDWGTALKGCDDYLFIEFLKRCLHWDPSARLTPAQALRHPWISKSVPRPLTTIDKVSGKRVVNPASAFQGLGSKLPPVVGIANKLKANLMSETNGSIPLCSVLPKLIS
Insulin-like growth factor 1 receptor, sequence (P08069 31-736 limits assumed): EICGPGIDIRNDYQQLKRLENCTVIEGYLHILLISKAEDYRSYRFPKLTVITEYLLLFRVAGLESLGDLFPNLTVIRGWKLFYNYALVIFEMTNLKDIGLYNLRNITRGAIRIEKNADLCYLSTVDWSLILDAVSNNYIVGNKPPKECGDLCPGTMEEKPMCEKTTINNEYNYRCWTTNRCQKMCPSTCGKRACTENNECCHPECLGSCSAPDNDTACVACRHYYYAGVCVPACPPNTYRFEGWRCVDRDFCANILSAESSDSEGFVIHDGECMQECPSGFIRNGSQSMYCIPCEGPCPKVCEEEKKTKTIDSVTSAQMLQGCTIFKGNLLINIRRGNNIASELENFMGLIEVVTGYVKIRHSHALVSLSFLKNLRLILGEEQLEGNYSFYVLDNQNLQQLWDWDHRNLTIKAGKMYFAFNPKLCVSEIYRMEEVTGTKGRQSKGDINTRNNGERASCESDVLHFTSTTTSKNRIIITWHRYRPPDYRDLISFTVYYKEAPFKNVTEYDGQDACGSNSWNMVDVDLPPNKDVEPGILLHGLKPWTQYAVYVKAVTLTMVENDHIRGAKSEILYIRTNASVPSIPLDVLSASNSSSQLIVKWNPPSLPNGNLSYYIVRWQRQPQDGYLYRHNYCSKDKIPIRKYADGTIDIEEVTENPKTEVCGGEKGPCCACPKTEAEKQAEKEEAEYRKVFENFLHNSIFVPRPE
Insulin-like growth factor 1 receptor, sequence (P08069 741-1367 limits assumed): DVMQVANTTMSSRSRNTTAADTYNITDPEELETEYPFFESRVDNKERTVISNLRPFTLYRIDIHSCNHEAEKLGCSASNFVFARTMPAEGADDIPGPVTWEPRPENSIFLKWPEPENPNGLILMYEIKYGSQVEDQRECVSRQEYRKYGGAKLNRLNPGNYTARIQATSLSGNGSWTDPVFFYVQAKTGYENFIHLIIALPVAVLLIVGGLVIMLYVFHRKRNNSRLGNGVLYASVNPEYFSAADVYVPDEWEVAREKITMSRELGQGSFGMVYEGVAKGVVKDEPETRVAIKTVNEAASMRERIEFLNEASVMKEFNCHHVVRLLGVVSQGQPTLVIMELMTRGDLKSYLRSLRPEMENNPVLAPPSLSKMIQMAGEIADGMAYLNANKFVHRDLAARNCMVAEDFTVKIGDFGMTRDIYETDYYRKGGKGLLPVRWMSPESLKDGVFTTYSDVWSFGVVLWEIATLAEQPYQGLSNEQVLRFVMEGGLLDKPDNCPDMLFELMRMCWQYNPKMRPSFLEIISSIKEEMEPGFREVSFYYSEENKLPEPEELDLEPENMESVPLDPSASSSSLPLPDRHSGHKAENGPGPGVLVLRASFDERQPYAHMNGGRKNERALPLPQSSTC
Glycogen synthase kinase-3 alpha, sequence (P49840 whole entry): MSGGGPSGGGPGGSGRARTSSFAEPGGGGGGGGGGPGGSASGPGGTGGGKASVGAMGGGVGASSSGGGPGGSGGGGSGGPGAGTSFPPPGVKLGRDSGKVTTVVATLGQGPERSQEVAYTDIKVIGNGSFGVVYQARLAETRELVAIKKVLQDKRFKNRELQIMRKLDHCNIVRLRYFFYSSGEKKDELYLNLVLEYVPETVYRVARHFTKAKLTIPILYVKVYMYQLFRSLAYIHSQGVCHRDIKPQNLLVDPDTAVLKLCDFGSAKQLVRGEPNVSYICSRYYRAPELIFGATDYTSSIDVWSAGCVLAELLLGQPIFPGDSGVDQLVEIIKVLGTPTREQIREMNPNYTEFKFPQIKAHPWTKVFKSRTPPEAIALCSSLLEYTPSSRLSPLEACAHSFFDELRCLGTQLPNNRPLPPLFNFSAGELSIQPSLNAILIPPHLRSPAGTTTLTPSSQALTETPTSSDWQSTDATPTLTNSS
Leukocyte tyrosine kinase receptor, sequence (P29376 whole entry): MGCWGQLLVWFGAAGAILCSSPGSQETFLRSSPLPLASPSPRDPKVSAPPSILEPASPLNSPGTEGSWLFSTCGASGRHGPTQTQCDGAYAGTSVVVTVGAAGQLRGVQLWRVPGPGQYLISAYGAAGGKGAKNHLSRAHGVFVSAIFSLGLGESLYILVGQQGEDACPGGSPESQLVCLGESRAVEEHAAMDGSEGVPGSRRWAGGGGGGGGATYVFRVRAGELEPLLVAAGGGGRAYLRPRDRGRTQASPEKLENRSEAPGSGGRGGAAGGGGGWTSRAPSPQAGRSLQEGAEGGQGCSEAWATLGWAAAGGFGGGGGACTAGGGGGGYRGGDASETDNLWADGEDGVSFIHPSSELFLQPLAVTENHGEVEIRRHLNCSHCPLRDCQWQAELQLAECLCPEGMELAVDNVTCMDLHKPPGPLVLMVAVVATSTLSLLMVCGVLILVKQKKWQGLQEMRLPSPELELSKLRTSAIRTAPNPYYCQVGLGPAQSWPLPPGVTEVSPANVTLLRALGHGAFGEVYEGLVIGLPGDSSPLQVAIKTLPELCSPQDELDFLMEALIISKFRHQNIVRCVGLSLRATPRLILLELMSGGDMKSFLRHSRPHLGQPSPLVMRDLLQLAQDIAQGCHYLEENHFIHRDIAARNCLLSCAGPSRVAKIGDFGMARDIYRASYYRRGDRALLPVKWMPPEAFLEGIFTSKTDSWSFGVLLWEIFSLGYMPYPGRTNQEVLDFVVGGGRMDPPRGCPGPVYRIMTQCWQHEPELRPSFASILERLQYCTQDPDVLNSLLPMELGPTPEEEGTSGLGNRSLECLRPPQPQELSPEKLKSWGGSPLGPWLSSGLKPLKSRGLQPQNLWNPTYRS
Serine/threonine-protein kinase Nek2, sequence (P51955 whole entry): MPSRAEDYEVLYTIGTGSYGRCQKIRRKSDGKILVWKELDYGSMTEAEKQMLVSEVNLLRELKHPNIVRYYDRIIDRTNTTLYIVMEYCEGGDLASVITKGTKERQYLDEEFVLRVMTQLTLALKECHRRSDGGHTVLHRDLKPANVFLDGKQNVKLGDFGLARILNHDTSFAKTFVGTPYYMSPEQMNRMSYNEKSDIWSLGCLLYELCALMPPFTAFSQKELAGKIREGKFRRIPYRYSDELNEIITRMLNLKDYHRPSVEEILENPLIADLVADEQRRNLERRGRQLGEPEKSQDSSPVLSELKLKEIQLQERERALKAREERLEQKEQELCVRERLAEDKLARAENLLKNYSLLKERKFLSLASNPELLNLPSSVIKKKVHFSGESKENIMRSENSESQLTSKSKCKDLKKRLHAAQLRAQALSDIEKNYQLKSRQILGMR
Dual specificity mitogen-activated protein kinase kinase 2, sequence (P36507 whole entry, canonical isoform): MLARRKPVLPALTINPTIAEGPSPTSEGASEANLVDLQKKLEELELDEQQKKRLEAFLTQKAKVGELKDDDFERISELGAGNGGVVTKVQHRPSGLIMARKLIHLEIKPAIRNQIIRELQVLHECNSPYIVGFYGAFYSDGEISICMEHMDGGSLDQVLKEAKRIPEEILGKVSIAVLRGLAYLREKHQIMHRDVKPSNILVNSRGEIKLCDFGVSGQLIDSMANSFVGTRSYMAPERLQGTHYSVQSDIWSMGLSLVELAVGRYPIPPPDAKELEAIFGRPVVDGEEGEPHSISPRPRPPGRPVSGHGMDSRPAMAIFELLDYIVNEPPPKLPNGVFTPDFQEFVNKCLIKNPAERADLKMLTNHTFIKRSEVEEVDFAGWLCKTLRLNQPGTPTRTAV
Aurora kinase B, sequence (Q96GD4 whole entry): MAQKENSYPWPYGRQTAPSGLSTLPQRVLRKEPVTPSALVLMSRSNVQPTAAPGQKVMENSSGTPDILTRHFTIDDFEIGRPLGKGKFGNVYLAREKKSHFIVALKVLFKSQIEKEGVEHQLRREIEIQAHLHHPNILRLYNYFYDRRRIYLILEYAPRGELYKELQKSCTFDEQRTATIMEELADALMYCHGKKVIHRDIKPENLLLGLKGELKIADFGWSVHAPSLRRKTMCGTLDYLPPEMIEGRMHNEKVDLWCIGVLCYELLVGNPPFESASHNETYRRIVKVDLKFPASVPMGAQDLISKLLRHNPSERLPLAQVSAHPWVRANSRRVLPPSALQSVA

O=C1C=C(N2CCOCC2)c2ccccc2C1=O
inactive: IC50 (HEK293) > 20 µM
> 120 µM (not active): EC50 [1]

N#Cc1ccc2[nH]c(O)c(-c3ccc(CN4CCOCC4)cn3)c2c1 [AZD-1080]
active: Ki [6] 6.31 µM | Ki [12] 1 µM
inactive: Ki [2] > 2.51 µM | Ki [3] > 7.94 µM | Ki [4] > 2.51 µM | Ki [5] > 2.51 µM | Ki [7] > 7.94 µM | Ki (SRSF protein kinase 1) > 7.94 µM | Ki [8] > 1.58 µM | Ki [9] > 10 µM | Ki [10] > 2 µM | Ki [11] > 2.51 µM | Ki (Aurora kinase A) > 1.58 µM | Ki [13] > 1.58 µM | Ki [14] > 10 µM | Ki [15] > 2.51 µM | Ki [16] > 3.98 µM | Ki [17] > 7.94 µM | Ki [18] > 7.94 µM | Ki [19] > 10 µM | Ki [20] > 1.58 µM | Ki (Aurora kinase B) > 3.16 µM | Ki [21] > 2.51 µM

CCc1oc2ccccc2c1C(=O)c1cc(Br)c(O)c(Br)c1 [BENZBROMARONE]
active: IC50 [23] 0.105 µM | IC50 [24] 1.74 µM | EC50 [25] 5.29 µM
inactive: IC50 [22] > 10 µM
